Source: patent publication US20260042731A1, “(2,4-DICHLOROPHENOXY)ACETIC ACID ANALOGS” (CORTEVA AGRISCIENCE LLC, priority 2022, published 2026)
Where two headings read alike, the source gives them in different places.

Key:
[1] = tested on: Amaranthus rudis (AMATA), tall water hemp; experiment: Postemergence herbicide evaluation, growth of Amaranthus rudis (AMATA); type: in vivo; details: Amaranthus tuberculatus, post-emergence, percent reduction in plant size relative to untreated control, read-out: Ave. AMATA; for pest or weed control at 280 g/ha: 280 g ae/ha; for pest or weed control at 560 g/ha: 560 g ae/ha
[2] = tested on: Ambrosia artemisiifolia (AMBEL), common ragweed; experiment: Postemergence herbicide evaluation, growth of Ambrosia artemisiifolia (AMBEL); type: in vivo; details: Ambrosia artemisiifolia, post-emergence, percent reduction in plant size relative to untreated control, read-out: AVE. AMBEL; for pest or weed control at 280 g/ha: 280 g ae/ha; for pest or weed control at 560 g/ha: 560 g ae/ha
[3] = tested on: Abutilon theophrasti (ABUTH), velvetleaf; experiment: Postemergence herbicide evaluation, growth of Abutilon theophrasti (ABUTH); type: in vivo; details: Abutilon theophrasti, post-emergence, percent reduction in plant size relative to untreated control, read-out: AVE. ABUTH; for pest or weed control at 280 g/ha: 280 g ae/ha; for pest or weed control at 560 g/ha: 560 g ae/ha
[4] = tested on: Chenopodium album (CHEAL), common lambsquarters; experiment: Postemergence herbicide evaluation, growth of Chenopodium album (CHEAL); type: in vivo; details: Chenopodium album, post-emergence, percent reduction in plant size relative to untreated control, read-out: Ave. CHEAL; for pest or weed control at 280 g/ha: 280 g ae/ha; for pest or weed control at 560 g/ha: 560 g ae/ha
[5] = tested on: glyphosate resistant Conyza canadensis (L.) (ERICA), horseweed; experiment: Postemergence herbicide evaluation, growth of Conyza canadensis (ERICA); type: in vivo; details: Erigeron canadensis, post-emergence, percent reduction in plant size relative to untreated control, read-out: Ave. ERICA; for pest or weed control at 280 g/ha: 280 g ae/ha; for pest or weed control at 560 g/ha: 560 g ae/ha
[6] = Volatility of compounds measured by thermogravimetric analysis (TGA); type: physicochemical
[7] = tested on: weeds (ABUTH, AMATA, AMBEL, CHEAL, ERICA); experiment: Postemergence herbicide evaluation, overall average % weed control across ABUTH, AMATA, AMBEL, CHEAL, ERICA; type: in vivo; details: post-emergence, average over the five weeds, read-out: Overall Ave % Weed Control; for pest or weed control at 280 g/ha: 280 g ae/ha; for pest or weed control at 560 g/ha: 560 g ae/ha

SMILES: CN(OC(=O)COc1ccc(Cl)cc1Cl)C(=O)c1ccccc1 [Compound A16, N-(2-(2,4-Dichlorophenoxy)acetoxy)-N-methylbenzamide]
- pest or weed control at 280 g/ha ([1]; 168 h, 7 DAA): 65%
- pest or weed control at 560 g/ha ([1]; 168 h, 7 DAA): 83%
- pest or weed control at 280 g/ha ([1]; 336 h, 14 DAA): 73%
- pest or weed control at 560 g/ha ([1]; 336 h, 14 DAA): 83%
- pest or weed control at 280 g/ha ([1]; 504 h, 21 DAA): 65%
- pest or weed control at 560 g/ha ([1]; 504 h, 21 DAA): 87%
- pest or weed control at 280 g/ha ([2]; 168 h, 7 DAA): 70%
- pest or weed control at 560 g/ha ([2]; 168 h, 7 DAA): 78%
- pest or weed control at 280 g/ha ([2]; 336 h, 14 DAA): 83%
- pest or weed control at 560 g/ha ([2]; 336 h, 14 DAA): 97%
- pest or weed control at 280 g/ha ([2]; 504 h, 21 DAA): 88%
- pest or weed control at 560 g/ha ([2]; 504 h, 21 DAA): 100%
- pest or weed control at 280 g/ha ([3]; 168 h, 7 DAA): 85%
- pest or weed control at 560 g/ha ([3]; 168 h, 7 DAA): 88%
- pest or weed control at 280 g/ha ([3]; 336 h, 14 DAA): 93%
- pest or weed control at 560 g/ha ([3]; 336 h, 14 DAA): 96%
- pest or weed control at 280 g/ha ([3]; 504 h, 21 DAA): 94%
- pest or weed control at 560 g/ha ([3]; 504 h, 21 DAA): 99%
- pest or weed control at 280 g/ha ([4]; 168 h, 7 DAA): 63%
- pest or weed control at 560 g/ha ([4]; 168 h, 7 DAA): 68%
- pest or weed control at 280 g/ha ([4]; 336 h, 14 DAA): 70%
- pest or weed control at 560 g/ha ([4]; 336 h, 14 DAA): 80%
- pest or weed control at 280 g/ha ([4]; 504 h, 21 DAA): 68%
- pest or weed control at 560 g/ha ([4]; 504 h, 21 DAA): 95%
- pest or weed control at 280 g/ha ([5]; 168 h, 7 DAA): 68%
- pest or weed control at 560 g/ha ([5]; 168 h, 7 DAA): 75%
- pest or weed control at 280 g/ha ([5]; 336 h, 14 DAA): 85%
- pest or weed control at 560 g/ha ([5]; 336 h, 14 DAA): 92%
- pest or weed control at 280 g/ha ([5]; 504 h, 21 DAA): 93%
- pest or weed control at 560 g/ha ([5]; 504 h, 21 DAA): 100%
- TGA Data (rate of weight loss, volatility) [6]: 4.3 µg/min
- pest or weed control at 280 g/ha ([7]; 168 h, 7 DAA): 70%
- pest or weed control at 560 g/ha ([7]; 168 h, 7 DAA): 78%
- pest or weed control at 280 g/ha ([7]; 336 h, 14 DAA): 81%
- pest or weed control at 560 g/ha ([7]; 336 h, 14 DAA): 89%
- pest or weed control at 280 g/ha ([7]; 504 h, 21 DAA): 81%
- pest or weed control at 560 g/ha ([7]; 504 h, 21 DAA): 96%

SMILES: CCOC(=O)C(=NOC(=O)COc1ccc(Cl)cc1Cl)C(=O)OCC [Compound A7, Diethyl 2-((2-(2,4-dichlorophenoxy)acetoxy)imino)malonate]
- pest or weed control at 280 g/ha ([1]; 168 h, 7 DAA): 73%
- pest or weed control at 560 g/ha ([1]; 168 h, 7 DAA): 78%
- pest or weed control at 280 g/ha ([1]; 336 h, 14 DAA): 83%
- pest or weed control at 560 g/ha ([1]; 336 h, 14 DAA): 88%
- pest or weed control at 280 g/ha ([1]; 504 h, 21 DAA): 90%
- pest or weed control at 560 g/ha ([1]; 504 h, 21 DAA): 88%
- pest or weed control at 280 g/ha ([2]; 168 h, 7 DAA): 63%
- pest or weed control at 560 g/ha ([2]; 168 h, 7 DAA): 70%
- pest or weed control at 280 g/ha ([2]; 336 h, 14 DAA): 83%
- pest or weed control at 560 g/ha ([2]; 336 h, 14 DAA): 95%
- pest or weed control at 280 g/ha ([2]; 504 h, 21 DAA): 92%
- pest or weed control at 560 g/ha ([2]; 504 h, 21 DAA): 98%
- pest or weed control at 280 g/ha ([3]; 168 h, 7 DAA): 75%
- pest or weed control at 560 g/ha ([3]; 168 h, 7 DAA): 88%
- pest or weed control at 280 g/ha ([3]; 336 h, 14 DAA): 83%
- pest or weed control at 560 g/ha ([3]; 336 h, 14 DAA): 89%
- pest or weed control at 280 g/ha ([3]; 504 h, 21 DAA): 92%
- pest or weed control at 560 g/ha ([3]; 504 h, 21 DAA): 94%
- pest or weed control at 280 g/ha ([4]; 168 h, 7 DAA): 68%
- pest or weed control at 560 g/ha ([4]; 168 h, 7 DAA): 70%
- pest or weed control at 280 g/ha ([4]; 336 h, 14 DAA): 75%
- pest or weed control at 560 g/ha ([4]; 336 h, 14 DAA): 73%
- pest or weed control at 280 g/ha ([4]; 504 h, 21 DAA): 73%
- pest or weed control at 560 g/ha ([4]; 504 h, 21 DAA): 78%
- pest or weed control at 280 g/ha ([5]; 168 h, 7 DAA): 68%
- pest or weed control at 560 g/ha ([5]; 168 h, 7 DAA): 73%
- pest or weed control at 280 g/ha ([5]; 336 h, 14 DAA): 89%
- pest or weed control at 560 g/ha ([5]; 336 h, 14 DAA): 83%
- pest or weed control at 280 g/ha ([5]; 504 h, 21 DAA): 93%
- pest or weed control at 560 g/ha ([5]; 504 h, 21 DAA): 90%
- TGA Data (rate of weight loss, volatility) [6]: 4.7 µg/min
- pest or weed control at 280 g/ha ([7]; 168 h, 7 DAA): 69%
- pest or weed control at 560 g/ha ([7]; 168 h, 7 DAA): 76%
- pest or weed control at 280 g/ha ([7]; 336 h, 14 DAA): 82%
- pest or weed control at 560 g/ha ([7]; 336 h, 14 DAA): 85%
- pest or weed control at 280 g/ha ([7]; 504 h, 21 DAA): 88%
- pest or weed control at 560 g/ha ([7]; 504 h, 21 DAA): 89%
